Measured values as given in US20070185128A1, “Compounds and compositions for treating obesity” (priority 2002, published 2007).

Test system: schedule fed male SPRD rat
Assay: Assay (I): efficacy on appetite, schedule-fed rat model, food intake (diet consumed)
Type: in vivo
Conditions: for Diet Consumed 1 hr (mean X of 8 rats): 1 hr after dosing; for Diet Consumed 2 hr (mean X of 8 rats): cumulative at 2 hr after dosing; for Diet Consumed 3 hr (mean X of 8 rats): cumulative at 3 hr after dosing
Method: FIG. 1: Effect on food intake in schedule fed (8 h-13 h) male SPRD rat model as described in assay 1. The rats are dosed ip at 08.00 h with vehicle, sibutramine (3 mg/kg) and (S,S)-6-(4-amino-butyl)-1-biphenyl-4-ylmethyl-3-naphthalen-2-ylmethyl-piperazine-2,5-dione (example 11) (1, 3 or 10 mg/kg). Rat chow and water is available from just post dosing, and food intake is measured every hour from dosing to 3 hours post dosing.
The bars indicate the cumulated food intake over time.
Assay (I) Experimental Protocol for Efficacy Testing on Appetite with MC4 Analogues, Using a Schedule—Fed Rat Model.
TAC:SPRD @mol rats or Wistar rats from M&B Breeding and Research Centre A/S, Denmark are used for the experiments. The rats have a bodyweight 200-250 g at the start of experiment. The rats arrive at least 10-14 days before start of experiment with a bodyweight of 180-200 g. Each dose of compound is tested in a group of 8 rats. A vehicle group of 8 rats is included in each set of testing.
When the animals arrive they are housed individually. After a habituating period of 4-7 days with free access to food and water, the schedule feeding is initiated. The rats are allowed to eat from 08 am to 01 pm each day. In the remaining period only access to water is allowed. They are kept on this feeding schedule for 8 days before start of experiment. In this period the animals are handled and dosed in the relevant way (ip, po, sc.) with saline at least 3 times. The experiment is conducted in the rat home cages. Immediately before dosing the rats are randomised to the different treatment groups (n=8) by bodyweight. They are dosed according to bodyweight at 08 am, with a 1 ml/kg solution either, ip, po or sc. The dosing time is recorded for each group. Following dosing the rats are returned to their home cages, where they now have access to food and water. The food consumption is recorded individually, each hour for 3 hours. At the end of the experimental session, the animals are euthanised.
The individual data are recorded in Microsoft excel sheets. Outliers are excluded after using the Grubbs statistical evaluation test for outliers and the result presented graphically by using the GraphPad Prism program.

| Structure (SMILES) | Diet Consumed 1 hr (mean X of 8 rats) (1 mg/kg i.p.) [Grams] | Diet Consumed 2 hr (mean X of 8 rats) (1 mg/kg i.p.) [Grams] | Diet Consumed 3 hr (mean X of 8 rats) (1 mg/kg i.p.) [Grams] | Diet Consumed 1 hr (mean X of 8 rats) (3 mg/kg i.p.) [Grams] | Diet Consumed 2 hr (mean X of 8 rats) (3 mg/kg i.p.) [Grams] | Diet Consumed 3 hr (mean X of 8 rats) (3 mg/kg i.p.) [Grams] | Diet Consumed 1 hr (mean X of 8 rats) (10 mg/kg i.p.) [Grams] | Diet Consumed 2 hr (mean X of 8 rats) (10 mg/kg i.p.) [Grams] | Diet Consumed 3 hr (mean X of 8 rats) (10 mg/kg i.p.) [Grams] |
| --- | --- | --- | --- | --- | --- | --- | --- | --- | --- |
| NCCCC[C@H]1C(=O)N[C@@H](Cc2ccc3ccccc3c2)C(=O)N1Cc1ccc(-c2ccccc2)cc1 [Example 23, (S,S)-6-(4-Amino-butyl)-1-biphenyl-4-ylmethyl-3-naphthalen-2-ylmethyl-piperazine-2,5-dione] | 2.4 | 6.3 | 8.4 | 3.4 | 7.1 | 8.5 | 2.7 | 5.4 | 6.3 |
| CC(C)CC(N(C)C)C1(c2ccc(Cl)cc2)CCC1 (stereo not drawn) [Sibutramine, reference compound] | – | – | – | 3.5 | 7.0 | 9.4 | – | – | – |
